What was measured:
[1] = test system: IR-induced senescent cells (IR-SC WI-38); assay: Cell viability of IR-induced senescent WI-38 cells after 72 hours of compound treatment; type: cell-based; conditions: for EC50: Homo sapiens, IR-induced senescent WI-38 cells, cell viability at 72 hours post-treatment; for selective killing of senescent WI38 cells over normal WI38 cells: ionizing radiation (IR, 10 Gy) induced senescent vs normal WI38 cells, viability at 72 hours, percent of control
Procedure: (§1) Normal WI-38 cells and IR-induced senescent cells were incubated with increasing concentrations of compounds of Formula (I). At 72 hours post-treatment cell viability was measured and ED50was calculated. Table 1 depicts the ED50 values of the compounds of Formula (I) against normal and IR-induced senescent cells.

normal WI-38 cells = assay: Cell viability of normal WI-38 cells after 72 hours of compound treatment; type: cell-based; conditions: Homo sapiens, cell viability at 72 hours post-treatment
Procedure: as §1

Row | Compound | EC50 [1] | EC50 (normal WI-38 cells) | selective killing of senescent WI38 cells over normal WI38 cells [1]
1 | COc1cc(/C=C/C(=O)N2CCC=C(F)C2=O)cc(OC)c1OC [No 1] | 15.3 µM | 12.1 µM | –
2 | COc1cc(/C=C/C(=O)N2CCC=C(Cl)C2=O)cc(OC)c1OC [No 2] | 0.65 µM | 5.3 µM | –
3 | COc1cc(/C=C/C(=O)N2CCC=C(Br)C2=O)cc(OC)c1OC [No 3] | 0.52 µM | 5.4 µM | –
4 | COc1cc(/C=C/C(=O)N2CCC=C(I)C2=O)cc(OC)c1OC [No 4] | 2.3 µM | 18.3 µM | –
5 | COc1cc(/C=C/C(=O)N2CCCC=C(Cl)C2=O)cc(OC)c1OC [No 5] | 0.45 µM | 1.7 µM | –
6 | COc1cc(/C=C/C(=O)N2CCCC=C(Br)C2=O)cc(OC)c1OC [No 6] | 0.56 µM | 3.6 µM | –
7 | COc1cc(/C=C/C(=O)N2OCC=CC2=O)cc(OC)c1OC [No 7] | 8 µM | 47.7 µM | –
8 | COc1ccc(/C=C/C(=O)N2CCC=C(Cl)C2=O)cc1 [No 8] | 0.51 µM | 0.35 µM | –
9 | COc1ccc(/C=C/C(=O)N2CCC=C(Br)C2=O)cc1 [No 9] | 0.63 µM | 1.1 µM | –
10 | COc1ccc(/C=C/C(=O)N2CCCC=C(Cl)C2=O)cc1 [No 10] | 0.16 µM | 1.5 µM | –
11 | COc1ccc(/C=C/C(=O)N2CCCC=C(Br)C2=O)cc1 [No 11] | 1.3 µM | 5.8 µM | –
12 | C=CC(=O)N1OCC=CC1=O [No 12] | 5.7 µM | 16.3 µM | –
13 | O=C1C(Br)=CCCN1C(=O)c1cc2ccccc2oc1=O [No 13] | 1.7 µM | 6.2 µM | –
14 | O=C1C(Br)=CCCCN1C(=O)c1cc2ccccc2oc1=O [No 14] | 4 µM | 5 µM | –
15 | O=C1C(Cl)=CCCN1S(=O)(=O)/C=C/c1ccccc1 [No 15] | 0.94 µM | 8.8 µM | –
16 | O=C1C(Br)=CCCN1S(=O)(=O)/C=C/c1ccccc1 [No 16] | 2.8 µM | 28.1 µM | –
17 | COc1cc(/C=C/C(=O)N2OCC=CC2=O)cc(OC)c1OC [XZ-12037, (E)-2-(β-(3,4,5-trimethoxyphenyl)acryloyl)-2H-1,2-oxazin-3(6H)-one] | – | – | selectively kills senescent WI38 cells over normal WI38 cells
18 | COc1cc(C(Cl)=CC(=O)N2CCCC=CC2=O)cc(OC)c1OC [XZ-12089, (E)-β-chloro-1-(β-(3,4,5-trimethoxyphenyl)acryloyl)-1,5,6,7-tetrahydro-2H-azepin-2-one] | – | – | selectively kills senescent WI38 cells over normal WI38 cells

— patent US12084423B2, “Piperlongumine analogues and uses thereof” (BioVentures, LLC, priority 2018, dated 2024)
